Our source for the IC50 values is ChEMBL document CHEMBL3886283, “Cycloalkyl and heterocycloalkyl compounds as orexin receptor antagonists” (2015).

For test [1], the target named is T1, Orexin/Hypocretin receptor type 1 (Homo sapiens, UniProt O43613).
T1 sequence (O43613 whole entry): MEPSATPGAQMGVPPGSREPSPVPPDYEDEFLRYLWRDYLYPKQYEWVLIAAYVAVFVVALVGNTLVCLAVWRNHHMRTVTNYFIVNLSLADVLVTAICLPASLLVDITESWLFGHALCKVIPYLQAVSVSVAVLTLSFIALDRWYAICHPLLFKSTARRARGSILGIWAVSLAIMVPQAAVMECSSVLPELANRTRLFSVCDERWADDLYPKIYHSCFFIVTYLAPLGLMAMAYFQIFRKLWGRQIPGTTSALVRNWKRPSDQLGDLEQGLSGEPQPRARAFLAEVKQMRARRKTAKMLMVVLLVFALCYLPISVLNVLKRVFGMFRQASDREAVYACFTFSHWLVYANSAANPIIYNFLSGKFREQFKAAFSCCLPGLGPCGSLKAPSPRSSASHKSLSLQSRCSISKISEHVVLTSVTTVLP
The test is classed as functional, cell-based, RBL-2H3.

The target in the next test is T2, Orexin receptor type 2 (Homo sapiens, UniProt O43614).
T2 sequence (O43614 whole entry): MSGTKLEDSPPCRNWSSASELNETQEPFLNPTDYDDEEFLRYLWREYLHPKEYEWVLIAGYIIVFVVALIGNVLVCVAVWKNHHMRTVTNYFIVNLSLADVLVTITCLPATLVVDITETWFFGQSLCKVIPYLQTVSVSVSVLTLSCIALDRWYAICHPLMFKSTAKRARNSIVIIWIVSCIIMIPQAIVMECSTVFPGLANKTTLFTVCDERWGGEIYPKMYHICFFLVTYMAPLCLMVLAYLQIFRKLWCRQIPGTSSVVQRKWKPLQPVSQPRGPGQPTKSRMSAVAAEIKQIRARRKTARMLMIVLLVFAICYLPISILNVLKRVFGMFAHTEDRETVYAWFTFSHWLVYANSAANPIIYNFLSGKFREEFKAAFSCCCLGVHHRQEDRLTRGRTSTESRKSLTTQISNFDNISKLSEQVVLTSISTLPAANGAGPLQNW
It is filed as functional, cell-based, RBL-2H3.

`O=C(N[C@H]1CCC[C@@H]1Nc1ccc(OC(F)(F)F)cn1)c1cc(Cl)ccc1-n1nccn1`: the IC50 in test [1] is 406 nM; against Orexin receptor type 2, more than 10 µM.
With `Cc1ccc(-n2nccn2)c(C(=O)N[C@H]2CCC[C@@H]2Nc2ccc(Cl)cn2)c1`, the IC50 in test [1] is 270 nM; on Orexin receptor type 2, more than 10 µM.
On to `COc1cccc(Br)c1C(=O)N[C@H]1CCC[C@@H]1Nc1cnc(C(F)(F)F)cn1`, for which the IC50 in test [1] was 367 nM; against Orexin receptor type 2, more than 10 µM.

One may read the IC50 as the concentration that inhibits the measured activity by half. Low readings indicate higher potency, high ones lower potency.
